Each compound was assayed on bacterial strain LF82 binding to the glycoprotein BSA-(Mannose)3 (FimH antagonists) (assay: Bacterial Binding Assay (BBA)). Conditions: read-out: Bacterial Binding Assay IC50 ± SEM.
Assay type: cell-based, Escherichia coli
Description: The purpose of the Bacterial Binding Assay (BBA) is to determine the inhibition activity of selective FimH antagonists on the bacterial strain LF82 binding to the glycoprotein BSA-(Mannose)3.
Below is a list of the Materials used to run the BBA are described below. • 1. LB broth: Supplier: Gibco, #10855 • 2. D-PBS: Supplier: Wisent, #311-425-CL • 3. LB agar plates • 4. 96-well black plate (high binding): Supplier: Costar, #3925 • 5. TopSeal™-A adhesive sealing films; Supplier PerkinElmer, #6005185 • 6. Carbonate-bicarbonate buffer pH 9.6 tablets, Supplier: Medicago, #09-8922-24 • 7. Water, Supplier: Gibco, #15230-162 • 8. Bovine serum albumin (BSA): Supplier: Sigma, #A-7888 • 9. (Man)3-BSA (α1-3, α1-6 Mannotriose-BSA, 1 mg), V-Labs, #NGP1336, lot# HGDX37-169-1 • 10. Tween 20: Supplier: Sigma, #P9416 • 11. Bright-Glo Luciferase Assay System: Supplier: Promega, #E2610 • 12. LF82/Luciferase strain: Invasive ability of an Escherichia coli strain isolated from the ileal mucosa of a patient with Crohn's disease. Boudeau J, Glasser A L, Masseret E, Joly B, Darfeuille-Michaud A, Infect Immun. 1999, 67(9), 4499-509
Solutions and buffers used to run the BBA are described below. • 1. 0.04M carbonate-bicarbonate buffer (coating buffer) • 2. 40 μg/mL BSA-(Man)3: Dissolve 1 mg of (Man)3-BSA in 25 mL of water. • 3. 4000 μg/mL BSA • 4. 40 μg/mL BSA • 5. 1 μg/mL BSA-(Man)3: 150 μL of 40 μg/mL BSA-(Man)3+5.85 mL of 40 μg/mL BSA • 6. 0.5 μg/mL BSA-(Man)3 in 0.02M carbonate-bicarbonate buffer. • 7. 20 μg/mL BSA in 0.02M carbonate-bicarbonate buffer • 8. Blocking buffer (2% BSA/DPBS): 1 g of BSA in 50 mL D-PBS • 9. 2× binding buffer (0.2% BSA/D-PBS): 5 mL of blocking buffer+45 mL D-PBS. • 10. Washing buffer (D-PBS/0.01% Tween 20): 10 μL of Tween 20 in 100 mL D-PBS. • 11. 1× Bright-Glo Luciferase substrate: Dilute 1:1 the Bright-Glo Luciferase Assay System with D-PBS
The experimental protocol used in this example to run the BBA is described below.
Overnight culture of LF82/Luciferase strain: Into two Falcon 50 mL tubes, add 20 mL of LB+20 μL of 50 mg/mL Kanamycin and inoculate with a loop from glycerol stock of the LF82/Luciferase strain. Incubate overnight at 37° C. with no shaking.
Glycoprotein coating of 96-well plates: Add 100 μL/well of 0.5-2 μg/mL BSA-(Man)3. 20 μg/mL BSA is used as the control background. Seal plate using an adhesive sealing film and incubate overnight at room temperature. Wash the 96-well plate three times with 150 μL/well of D-PBS, add 170 μL/well of blocking solution and incubate 45 min (minimum) at room temperature.
Preparation of bacterial suspension: Mix the two cultures tubes (40 mL) and perform a 1:10 dilution in LB (900 μl LB+100 μl culture. Measure optical density (OD) of the bacterial cultures. OD1 ˜5×10^8 cells/mL. Centrifuge LF82 culture for 20 min at 3500 rpm at room temperature. Re-suspend bacterial pellet in D-PBS and centrifuge again for 20 min at 3500 rpm. Re-suspend bacterial pellet in D-PBS to obtain a bacterial concentration of 2×10^9 bacteria/mL. Dilute 1/10 in D-PBS to obtain a final bacterial concentration of 2×10^8 bacteria/mL (=107 bacteria/50 μL). Perform 1/10 serial dilutions in LB of each bacterial suspension, plate 10 μL of dilutions on LB agar plates (final dilutions of 10^−7) and incubate overnight at 37° C. and count CFUs to determine the actual bacteria density in the assay.
Bacterial binding assay: Add 147 μL 2× binding buffer to compound plate (containing 3 μL of compound). After blocking step is performed (at least 45 min), wash plates three times with 200 μL/well of D-PBS. With a 100 μL multichannel manual pipettor, add 50 μL/well of compound diluted in 2× binding buffer. With a 100 μL multichannel manual pipettor, add 50 μL/well of bacterial suspension. Agitate at slow speed for 1 min and incubate 40-75 min at room temperature. Wash 5 times with 150 μL/well of washing buffer and then once with D-PBS. Add 100 μL/well of 1× Bright-Glo Luciferase substrate. […]

First: Cc1ccc(C)c(-c2cc(C#C[C@H]3O[C@H](CO)[C@@H](O)[C@H](O)[C@@H]3O)c3[nH]ncc3c2)c1 [Compound 82, (2R,3S,4R,5S,6R)-2-[2-[5-(2,5-dimethylphenyl)-1H-indazol-7-yl]ethynyl]-6-(hydroxymethyl)tetrahydropyran-3,4,5-triol]
Second: Cc1ccncc1-c1cc(C#C[C@H]2O[C@H](CO)[C@@H](O)[C@H](O)[C@@H]2O)c2[nH]ncc2c1 [Compound 77, (2R,3S,4R,5S,6R)-2-(hydroxymethyl)-6-[2-[5-(4-methyl-3-pyridyl)-1H-indazol-7-yl]ethynyl]tetrahydropyran-3,4,5-triol]
The IC50 of the first is 10-fold higher: 1 nM for the first, 0.1 ± 0.02 nM for the second.

Going from `O=c1[nH]c2cc(Cl)cc(C#C[C@H]3O[C@H](CO)[C@@H](O)[C@H](O)[C@@H]3O)c2[nH]1` [Compound 12, 6-chloro-4-[2-[(2R,3S,4R,5S,6R)-3,4,5-trihydroxy-6-(hydroxymethyl)tetrahydropyran-2-yl]ethynyl]-1,3-dihydrobenzimidazol-2-one] to `CCCCc1cc(C#C[C@H]2O[C@H](CO)[C@@H](O)[C@H](O)[C@@H]2O)c2[nH]c(=O)[nH]c2c1` [Compound 15, 6-butyl-4-[2-[(2R,3S,4R,5S,6R)-3,4,5-trihydroxy-6-(hydroxymethyl)tetrahydropyran-2-yl]ethynyl]-1,3-dihydrobenzimidazol-2-one], the IC50 falls from 16 ± 6 nM to 0.7 ± 0.2 nM (23-fold). The second is the more potent here.

`O=c1cc(-c2cc(C#C[C@H]3O[C@H](CO)[C@@H](O)[C@H](O)[C@@H]3O)c3[nH]ncc3c2)cc[nH]1` [Compound 85, 4-[7-[2-[(2R,3S,4R,5S,6R)-3,4,5-trihydroxy-6-(hydroxymethyl)tetrahydropyran-2-yl]ethynyl]-1H-indazol-5-yl]-1H-pyridin-2-one] and `COc1cccc(-c2cc(C#C[C@H]3O[C@H](CO)[C@@H](O)[C@H](O)[C@@H]3O)c3[nH]ncc3c2)c1` [Compound 38, (2R,3S,4R,5S,6R)-2-(hydroxymethyl)-6-[2-[5-(3-methoxyphenyl)-1H-indazol-7-yl]ethynyl]tetrahydropyran-3,4,5-triol] are within error of each other in IC50: 0.4 ± 0.2 nM for the first, 0.8 ± 0.5 nM for the second.

Going from `Cn1ncc2cccc(C#C[C@H]3O[C@H](CO)[C@@H](O)[C@H](O)[C@@H]3O)c21` [Compound 13, (2R,3S,4R,5S,6R)-2-(hydroxymethyl)-6-[2-(1-methylindazol-7-yl)ethynyl]tetrahydropyran-3,4,5-triol] to `CCCCc1cc(C#C[C@H]2O[C@H](CO)[C@@H](O)[C@H](O)[C@@H]2O)c2c(cnn2C)c1` [Compound 22, (2R,3S,4R,5S,6R)-2-[2-(5-butyl-1-methyl-indazol-7-yl)ethynyl]-6-(hydroxymethyl)tetrahydropyran-3,4,5-triol], the IC50 falls from 480 ± 150 nM to 53 ± 4 nM (9.1-fold).

Going from `CC(C)(C)OC(=O)n1ccc(-c2cc(C#C[C@H]3O[C@H](CO)[C@@H](O)[C@H](O)[C@@H]3O)c3[nH]ncc3c2)c1` [Compound 72, tert-butyl 3-[7-[2-[(2R,3S,4R,5S,6R)-3,4,5-trihydroxy-6-(hydroxymethyl)tetrahydropyran-2-yl]ethynyl]-1H-indazol-5-yl]pyrrole-1-carboxylate] to `OC[C@H]1O[C@H](C#Cc2cc(-c3cccnc3)cc3cn[nH]c23)[C@@H](O)[C@@H](O)[C@@H]1O` [Compound 27, (2R,3S,4R,5S,6R)-2-(hydroxymethyl)-6-[2-[5-(3-pyridyl)-1H-indazol-7-yl]ethynyl]tetrahydropyran-3,4,5-triol], the IC50 falls from 7 ± 4 nM to 0.2 ± 0.03 nM (35-fold). The second is the more potent here.

Going from `Cn1cnc2ccc(-c3cc(C#C[C@H]4O[C@H](CO)[C@@H](O)[C@H](O)[C@@H]4O)c4[nH]ncc4c3)cc21` [Compound 33, (2R,3S,4R,5S,6R)-2-(hydroxymethyl)-6-[2-[5-(3-methylbenzimidazol-5-yl)-1H-indazol-7-yl]ethynyl]tetrahydropyran-3,4,5-triol] to `OC[C@H]1O[C@H](C#Cc2cc(-c3ccc4c(c3)OCO4)cc3cn[nH]c23)[C@@H](O)[C@@H](O)[C@@H]1O` [Compound 37, (2R,3S,4R,5S,6R)-2-[2-[5-(1,3-benzodioxol-5-yl)-1H-indazol-7-yl]ethynyl]-6-(hydroxymethyl)tetrahydropyran-3,4,5-triol], the IC50 rises from 0.4 ± 0.05 nM to 0.7 ± 0.02 nM (1.7-fold).

Going from `OC[C@H]1O[C@H](C#Cc2cccc3c2NCC3)[C@@H](O)[C@@H](O)[C@@H]1O` [Compound 9, (2R,3S,4R,5S,6R)-2-(hydroxymethyl)-6-(2-indolin-7-ylethynyl)tetrahydropyran-3,4,5-triol] to `Cc1cc(C#C[C@H]2O[C@H](CO)[C@@H](O)[C@H](O)[C@@H]2O)c2cn[nH]c2c1` [Compound 7, (2R,3S,4R,5S,6R)-2-(hydroxymethyl)-6-[2-(6-methyl-1H-indazol-4-yl)ethynyl]tetrahydropyran-3,4,5-triol], the IC50 falls from 725 ± 155 nM to 76 ± 26 nM (9.5-fold).

Going from `OC[C@H]1O[C@H](C#Cc2cc(C#CC3CC3)cc3cn[nH]c23)[C@@H](O)[C@@H](O)[C@@H]1O` [Compound 43, (2R,3S,4R,5S,6R)-2-[2-[5-(2-cyclopropylethynyl)-1H-indazol-7-yl]ethynyl]-6-(hydroxymethyl)tetrahydropyran-3,4,5-triol] to `CNC(=O)c1cc(C#C[C@H]2O[C@H](CO)[C@@H](O)[C@H](O)[C@@H]2O)c2[nH]ncc2c1` [Compound 62, N-methyl-7-[2-[(2R,3S,4R,5S,6R)-3,4,5-trihydroxy-6-(hydroxymethyl)tetrahydropyran-2-yl]ethynyl]-1H-indazole-5-carboxamide], the IC50 rises from 2 ± 1 nM to 34 ± 20 nM (17-fold).

`OC[C@H]1O[C@H](C#Cc2cc(C3=CCCC3)cc3cn[nH]c23)[C@@H](O)[C@@H](O)[C@@H]1O` [Compound 70, (2R,3S,4R,5S,6R)-2-[2-[5-(cyclopenten-1-yl)-1H-indazol-7-yl]ethynyl]-6-(hydroxymethyl)tetrahydropyran-3,4,5-triol] and `Cc1nc(O)ccc1-c1cc(C#C[C@H]2O[C@H](CO)[C@@H](O)[C@H](O)[C@@H]2O)c2[nH]ncc2c1` [Compound 80, (2R,3S,4R,5S,6R)-2-(hydroxymethyl)-6-[2-[5-(6-hydroxy-2-methyl-3-pyridyl)-1H-indazol-7-yl]ethynyl]tetrahydropyran-3,4,5-triol] are the same in IC50: 0.2 ± 0.04 nM for the first, 0.2 ± 0.08 nM for the second.

First: CCOc1cc(C)c(-c2cc(C#C[C@H]3O[C@H](CO)[C@@H](O)[C@H](O)[C@@H]3O)c3[nH]ncc3c2)cn1 [Compound 54, (2R,3S,4R,5S,6R)-2-[2-[5-(6-ethoxy-4-methyl-3-pyridyl)-1H-indazol-7-yl]ethynyl]-6-(hydroxymethyl)tetrahydropyran-3,4,5-triol]
Second: OC[C@H]1O[C@H](C#Cc2cc(-c3cc(F)ccc3F)cc3cn[nH]c23)[C@@H](O)[C@@H](O)[C@@H]1O [Compound 86, (2R,3S,4R,5S,6R)-2-[2-[5-(2,5-difluorophenyl)-1H-indazol-7-yl]ethynyl]-6-(hydroxymethyl)tetrahydropyran-3,4,5-triol]
The IC50 of the first is 2.5-fold lower: 0.4 ± 0.1 nM for the first, 1 ± 0.2 nM for the second.

`OC[C@H]1O[C@H](C#Cc2cc(-c3ccc(OCc4ccccc4)nc3)cc3cn[nH]c23)[C@@H](O)[C@@H](O)[C@@H]1O` [Compound 75, (2R,3S,4R,5S,6R)-2-[2-[5-(6-benzyloxy-3-pyridyl)-indazol-7-yl]ethynyl]-6-(hydroxymethyl)tetrahydropyran-3,4,5-triol] was tested, and the IC50 was 2 ± 0.7 nM.

Source: patent publication US10407414B2, “Mannose derivatives for treating bacterial infections” (priority 2015, dated 2019)
